Entries after “also recorded” stand apart in the source; their conditions may differ.
What was measured:
[1] = test system: HEK293 cells stably expressing PLE; assay: Pro-fluorophore activation in PLE-expressing HEK293 cells (kinetic imaging plate reader); assay type: cell-based; conditions: for Fold Increase in Fluorescence / rank of fold increase in fluorescence in cells (in words): 10 μM; for Fold Increase in Fluorescence: PLE-expressing HEK293 divided by wild-type HEK293, 5 min after addition, mean (SEM) of 4 replicates; for rank of fold increase in fluorescence in cells (in words): PLE-expressing vs wild-type HEK293 (Table 2)
Excerpt: Cell-based assays. To construct a PLE-expressing HEK293 cell line, a PLE-IRES-mCherry construct was excised from the pCAG-PLE-IRES-mCherry (Addgene plasmid #45766) vector using Not1-HF and Xho1 (Tian et al., Proceedings of the National Academy of Sciences, 2012, 109, 4756-4761). The PLE-IRES-mCherry insert was then cloned into pcDNA3.1/Zeo vector (Thermo Fisher Scientific). The pcDNA3.1/Zeo PLE-IRES-mCherry vector was introduced to HEK293 (ATCC) using FuGENE HD (Promega). PLE-expressing cells were selected for using Zeocin.
(§1) Wild-type HEK293 and PLE-expressing HEK293 cells maintained in α-MEM (Corning) containing 10% vol/vol fetal bovine serum (Thermo-Fisher Scientific) and 1% vol/vol GlutaGro (Corning) (cell culture medium) were seeded with 20,000 cells/well in 20 μL of cell culture medium into amine-coated, clear-bottom, and black-walled 384-well plate (BD Biosciences). Plates were then incubated overnight at 37° C. in a 5% CO2 cell culture incubator. Following overnight incubation, cell culture medium was removed and replaced with 20 μL/well assay buffer. Rhodamine-amide profluorophores dissolved in DMSO at 10 mM were diluted into assay buffer at concentrations ranging from 50 μM-70 nM. Forty μL/well of pro-fluorophore solutions were placed in polypropylene 384-well plates (Greiner). Immediately before the beginning of data acquisition, the assay buffer was removed from the cell-containing plates. The cell-containing and pro-fluorophore containing plates where then immediately loaded into a Panoptic kinetic imaging plate reader. Images were acquired at 1 Hz (excitation 480±20 nm and 540±30 nm) for 30 seconds, then 20 μL/well of the pro-fluorophore solutions were added to the cell-containing plates and imaging continued for an additional 15 minutes.

[2] = test system: porcine liver esterase (PLE); assay: In vitro activation of rhodamine-amide pro-fluorophores by PLE (kinetic fluorescence plate assay); assay type: biochemical; conditions: for conversion to the fluorescent Rhodamine 110 by PLE (in words): 10 μM, 2 min, 22° C., 30 nM PLE (FIG. 2B); for Km: Table 1, PLE activation; for quality as PLE substrate (in words): in vitro and in cells, comparison within the library
Experimental: To investigate the ability of PLE to activate various rhodamine-amide pro-fluorophores, the compounds were dissolved in DMSO to a concentration of 100 mM and serially diluted in DMSO in 10, 3-fold steps. The compounds were then added to the well of a low volume, cyclic olefin copolymer 384-well plate (Labcyte). Forty nL/well of pro-fluorophore solution were transferred to black-walled, clear-bottom, polystyrene 384-well plates (Greiner) using an Echo plate reformatter (Labcyte). Following compound transfer, […] of phosphate-buffered saline (PBS) was added to each well and thoroughly mixed. PLE (Sigma, 46058) dissolved in PBS at a concentration of 60 nM and 40 μL of this solution was added to the wells of a polypropylene 384-well plate (Greiner). Pro-fluorophore-containing and PLE-containing plates were placed in a Panoptic kinetic imaging plate reader (WaveFront Biosciences). Images were acquired at 1 Hz (excitation 480±20 nm and 540±30 nm) for 30 seconds, then 20 μL/well of the PLE solutions were added to the pro-fluorophore-containing plates and imaging continued for an additional 15 minutes. In addition to the pro-fluorophore-containing plates, a plate containing PBS only was imaged as was a plate containing a concentration series of Rhodamine 110.

wild-type HEK293 cells [3] = assay: Pro-fluorophore activation in wild-type HEK293 cells (kinetic imaging plate reader); assay type: cell-based; conditions: 3 μM (FIG. 3A)
Experimental: as §1

[4] = test system: HEK293 cells expressing PLE; assay: Confocal fluorescence microscopy of PLE-expressing HEK293 cells; assay type: cell-based; conditions: treated 1 h at 22° C. (FIG. 4 panels a-c)
Experimental: (§2) Microscopy. Confocal images were acquired using a Nikon MR (Nikon Instruments) laser scanning confocal microscope equipped with plan apochromat violet corrected 1.4 numerical aperture (N.A.) oil immersion lens. Hoescht images were obtained using a 405 nm laser and 425-475 nm emission filter. Pro-fluorophore (1c) was imaged using a 488 nm laser and 500-550 nm emission filter. Cells for imaging study were cultured overnight on no. 1 chambered slides (lab-tek II, ThermoFisher) in medium previously described in kinetic imaging assays. Medium was removed and pro-fluorophore was added to the slide chambers in assay buffer containing Hoescht, 1 μg/mL. […]

wild-type HEK293 cells [5] = assay: Confocal fluorescence microscopy of wild-type HEK293 cells; assay type: cell-based; conditions: treated 1 h at 22° C. (FIG. 4 panels d-f)
Experimental: as §2

[6] = listed as N,N′-dipropionyl rhodamine

| Compound | Fold Increase in Fluorescence [1] | rank of fold increase in fluorescence in cells (in words) [1] | conversion to the fluorescent Rhodamine 110 by PLE (in words) [2] | Km [2] [µM] | quality as PLE substrate (in words) [2] | further results |
| --- | --- | --- | --- | --- | --- | --- |
| CC(C)C(=O)Nc1ccc2c(c1)Oc1cc(NC(=O)C(C)C)ccc1C21OC(=O)c2ccccc21 [Compound 1d, N,N′-bis-isobutyl rhodamine] | 458 (±1.6) |  |  |  |  |  |
| O=C1OC2(c3ccc(NC(=O)C(F)(F)F)cc3Oc3cc(NC(=O)C(F)(F)F)ccc32)c2ccccc21 [Compound 1a, N,N′ bis-triflouroacetyl rhodamine] | 5701 (±26.4) | largest fold increase in fluorescence | most effective conversion | 2.06 | good PLE substrates | rank of fold increase in fluorescence in cells (in words) ([1]; listed as N,N′-ditrifluoroacetyl rhodamine): largest increase in fluorescence; quality as PLE substrate (in words) ([2]; listed as N,N′-ditrifluoroacetyl): better substrates than the others |
| O=C(Nc1ccc2c(c1)Oc1cc(NC(=O)c3ccccc3)ccc1C21OC(=O)c2ccccc21)c1ccccc1 [Compound 1f, N,N′-bis-benzoyl rhodamine] | 119 (±1.2) |  |  | 7.45 |  |  |
| CCC(=O)Nc1ccc2c(c1)Oc1cc(NC(=O)CC)ccc1C21OC(=O)c2ccccc21 [Compound 1c, N,N′-bis-propionyl rhodamine] | 725 (±2.1) | largest fold increase in fluorescence | most effective conversion |  | good PLE substrates | fluorescence upon addition to PLE-expressing HEK293 cells (in words) ([1]; 3 μM, 384-well plate (FIG. 3A)): rapid increase in fluorescence; fluorescence upon addition to wild-type HEK293 cells (in words) (wild-type HEK293 cells [3]): no increase in fluorescence was observed; confocal fluorescence in PLE-expressing HEK293 cells (in words) [4]: bright, predominantly cytoplasmic, fluorescence; confocal fluorescence in PLE-expressing HEK293 cells (in words) [4, 6]: bright, cytoplasmic fluorescence; quality as PLE substrate (in words) [2, 6]: better substrates than the others; confocal fluorescence in wild-type HEK293 cells (in words) (wild-type HEK293 cells [5]): no fluorescence was observed |
| CC(=O)Nc1ccc2c(c1)Oc1cc(NC(C)=O)ccc1C21OC(=O)c2ccccc21 [Compound 1b, N,N′-bis-acetyl rhodamine] | 37 (±0.2) |  |  |  | less preferred substrate; also recorded: poor substrate |  |
| CC(C)(C)C(=O)Nc1ccc2c(c1)Oc1cc(NC(=O)C(C)(C)C)ccc1C21OC(=O)c2ccccc21 [Compound 1e, N,N′-bis-pivaloyl rhodamine] | 87 (±0.4) |  |  |  |  |  |

— patent publication US11104926B1, “Pro-fluorophore compounds and use thereof” (Vanderbilt University, priority 2018, dated 2021)
